# Measured values: US8501759B2, “Use of fibrates” (Fournier Laboratories Ireland Limited, priority 2009, dated 2013)
# Legend:
# [1] = 160 mg tablet administered with food; cited from earlier work
# [2] = test system: patients with sleep apnea syndrome; experiment: Safety (adverse events, safety laboratory, vital signs)
# [3] = test system: patients with sleep apnea syndrome; experiment: Overnight sleep study: apnea/hypopnea recording (CID 102) in the 1-month placebo-controlled study; assay type: in vivo, human
# Description: This study comprised 2 phases: • a run-in period of 1 to 5 weeks, on usual diet, • a treatment period of at least 4 weeks (40 days maximum).
# (§1) Primary variables: number of obstructive apneas, of central apneas, of mixed apneas, total number of apneas, index of apnea per sleep hour, total number of hypopneas, index of hypopnea per sleep hour, index of apnea/hypopnea per sleep hour, total number of desaturations per sleep hour (with a variation of at least 3-4%), and percentage of time spent with SpO2<90%.
# (§2) Variables assessed as complementary analyses: cumulated duration of apnea, mean duration of apnea, duration of the longest apnea, number of non cortical micro-awakening indicators related to respiratory events/hour, number of non cortical micro-awakening indicators related to respiratory events, oxygen saturation in blood measured by pulse oximetry (SpO2) in wake state, mean SpO2 on sleep recording, minimum value of SpO2, percentage of time spent with SpO2<80%, percentage of time spent with SpO2<85%, number of tachycardia, mean duration of tachycardia, number of bradycardia, mean duration of bradycardia, mean pulse rate, standard deviation pulse rate, minimum pulse rate, maximum pulse rate, decrease in daytime sleepiness assessed by the ESS, vigilance tests (reflexive visually guided saccades, antisaccades and sustained attention test).
# Throughout the night, respiration was monitored by a sound pressure transducer placed on the suprasternal notch facing the trachea or thoracic strain gauges (model CID 102) (Van Surell C, Lemaigre D, Leroy M, Foucher A, Hagenmuller M P, Raffestin B. Evaluation of an ambulatory device, CID 102, in the diagnosis of obstructive sleep apnea syndrome. Eur Respir J. 1995; 8(5):795-800).
# Apnea is defined as an absence of inspiratory flow for at least 10 seconds.
# Hypopnea is defined as a 50% to 80% reduction in airflow combined with 3-4% oxygen desaturations.
# Sleep apneas are classified as obstructive or central.
# Central apneas are defined as total absence of inspiratory flow and chest/abdominal movement during the period of absence of inspiration flow.
# Obstructive sleep apneas are defined by a decrease in airflow of more than 80% in the presence of paradoxical movements of the ribcage and abdomen. Similar to AHI, the obstructive and central apneas were based on definitions that require events to be associated with 3-4% desaturations.
# [4] = test system: patients with sleep apnea syndrome; experiment: Laboratory efficacy variables (lipids, glucose, fibrinogen, insulin); assay type: in vivo, human
# Protocol: Secondary variables: % change from baseline (V2) in fasting and post-prandial TG, total cholesterol (TC), high-density lipoprotein cholesterol (HDL-C), fasting plasma glucose (FPG), fibrinogen and insulin.
# TC, TG, HDL-C, glucose, fibrinogen and insulin were measured at inclusion and during the 2 hospital admissions before a lipid rich breakfast. Insulin was also measured before the lipid rich breakfast, each morning following the sleep study.
# Post-prandial TG were measured 4 hours after a lipid rich breakfast.
# [5] = test system: patients with sleep apnea syndrome; experiment: Epworth Sleepiness Scale (ESS); assay type: in vivo, human; settings: fenofibrate group, at baseline and at end of treatment; global score 0 to 24
# Description: as §2
# This scale is the most widely index used to measure sleep apnea subjectively. It is a self-administered questionnaire that asks patients their likelihood of falling asleep in 8 situations ranked from 0 (no chance of dozing), 1 (slight chance of dozing), 2 (moderate chance of dozing) to 3 (high chance of dozing). The numbers are then added together to obtain a global score between 0 and 24. A value of 10 or below is considered normal.
# [6] = test system: patients with sleep apnea syndrome; experiment: Sustained attention test; settings: end of treatment (V3)
# [7] = test system: patients with sleep apnea syndrome; experiment: Overnight sleep study: pulse oximetry (SpO2, desaturations); assay type: in vivo, human
# Description: as §1, §2
# Desaturation episodes were the markers of respiratory impairment. All-night recordings of arterial oxygen saturation were obtained using a cardio-respiratory pulse oximeter attached to the finger (SpO2).
# Severity of obstructive sleep apnea was measured by the number of falls in SpO2 of more than 3-4% per hour of sleep. The equipment automatically selected the desaturation threshold (3 or 4%) according to the baseline SpO2 value. To further define the severity of OSA, the lowest SpO2 point and the percentage of time spent with SpO2<90% was determined.
# [8] = fenofibrate group, treatment period
# [9] = ANCOVA on Log-transformed V3 values, relative difference
# [10] = end of treatment (V3), ANCOVA on non-transformed data
# [11] = fenofibrate 145 mg group, end of treatment (V3)
# [12] = end of treatment (V3), ANCOVA on Log-transformed data, relative difference
# [13] = end of treatment (V3), ANCOVA on non-transformed data, absolute difference
compound,measurement,setting,value
"CC(C)OC(=O)C(C)(C)Oc1ccc(C(=O)c2ccc(Cl)cc2)cc1 [Fenofibrate, fenofibrate]",increase of exposure to fenofibric acid with food compared to fasting conditions,[1],35%
same,tolerability,"[2]; 4-week treatment, 145 mg once daily",well tolerated
same,"changes in mean values of pulse rate, DBP or SBP between baseline and end of treatment",[2]; either treatment group,no meaningful changes
same,"other safety biological variables (ALT, AST, CK), fenofibrate vs placebo",[2]; end of treatment,did not differ between the 2 groups
same,Median % change at end of treatment from baseline in RBC,[2]; fenofibrate group,−2.7%
same,Median % change at end of treatment from baseline in WBC,[2]; fenofibrate group,−11.6%
same,Median % change at end of treatment from baseline in hematocrit,[2]; fenofibrate group,−3.2%
same,Median % change at end of treatment from baseline in hemoglobin,[2]; fenofibrate group,−3.8%
same,AEs reported (kinds),[2]; [8],"bloating (n=1), rash (n=1), allergic rhinitis (n=1), metabolic syndrome (SAE, n=1), type 2 diabetes (n=1), and cystitis (n=1)"
same,number of AEs reported,[2]; [8],6
same,number of patients with AEs,[2]; [8],3
same,number of SAE reported during the treatment period,"[2]; fenofibrate group, hospitalized for assessment of metabolic syndrome, not related to study treatment",1
same,Median % change at end of treatment from baseline in platelets,"[2]; fenofibrate group, p=0.007 vs placebo",+4.7%
same,Median % change at end of treatment from baseline in creatinine,"[2]; fenofibrate group, p=0.015 vs placebo",+5.9%
same,mean values of body weight and BMI at end of treatment compared to baseline,[2]; in vivo,remained roughly unchanged
same,AEs considered as related to study treatment,[2]; treatment period,None
same,"Number of central apneas, Fenofibrate-Placebo at end of treatment, Estimate",[3]; [9],−55%
same,"Number of hypopneas, Fenofibrate-Placebo at end of treatment, Estimate",[3]; [9],−46%
same,"Number of mixed apneas, Fenofibrate-Placebo at end of treatment, Estimate",[3]; [9],−25%
same,"Number of obstructive apneas, Fenofibrate-Placebo at end of treatment, Estimate",[3]; [9],−44%
same,"Number of apneas, Fenofibrate-Placebo at end of treatment, Estimate","[3]; ANCOVA on Log-transformed V3 values, relative difference, minus = improvement",−35%
same,"Cumulated duration of apnea, Fenofibrate-Placebo Estimate","[3]; end of treatment (V3), ANCOVA on Log-transformed data",−31%
same,"Number of non cortical micro-awakening, Fenofibrate-Placebo Estimate",[3]; [10],−75.7
same,"Cumulated duration of apnea, End (V3) (median)",[3]; [11],4.5 min
same,"Duration of the longest apnea, End (V3) (median)",[3]; [11],23.5 s
same,"Mean duration of apnea, End (V3) (median)",[3]; [11],13.5 s
same,"Number of central apneas, End (V3) (median)",[3]; [11],1.0
same,"Number of hypopneas, End (V3) (median)",[3]; [11],63.0
same,"Number of mixed apneas, End (V3) (median)",[3]; [11],1.0
same,"Number of non cortical micro-awakening, End (V3) (median)",[3]; [11],128.0
same,"Number of obstructive apneas, End (V3) (median)",[3]; [11],15.0
same,"Number of apneas, End (V3) (median)","[3]; fenofibrate 145 mg group, end of treatment (V3), total number during sleep recording",20.5
same,"Non cortical micro-awakening per hour, End (V3) (median)","[3]; fenofibrate 145 mg group, end of treatment (V3), indicators related to respiratory events",18.0
same,effect on fasting plasma glucose (FPG),[4]; end of treatment,no effect
same,"HDL-Cholesterol, Fenofibrate-Placebo Estimate",[4]; [12],2%
same,"Post-Prandial Triglycerides, Fenofibrate-Placebo Estimate",[4]; [12],−26%
same,"Fasting Plasma Glucose, Fenofibrate-Placebo Estimate",[4]; [13],0.2 mmol/L
same,"Fibrinogen, Fenofibrate-Placebo Estimate",[4]; [13],-1.7 µmol/L
same,"Insulin, Fenofibrate-Placebo Estimate",[4]; [13],12.1 pmol/L
same,"Total Cholesterol, Fenofibrate-Placebo Estimate",[4]; [13],-0.8 mmol/L
same,"Fasting Plasma Glucose, End (V3) (median)",[4]; [11],5.45 mmol/L
same,"Fasting Triglycerides, End (V3) (median)",[4]; [11],2.00 mmol/L
same,"Fibrinogen, End (V3) (median)",[4]; [11],8.82 µmol/L
same,"Insulin, End (V3) (median)",[4]; [11],94.4 pmol/L
same,"Total Cholesterol, End (V3) (median)",[4]; [11],4.58 mmol/L
same,"Post-Prandial Triglycerides, End (V3) (median)","[4]; fenofibrate 145 mg group, end of treatment (V3), 4 hours after a lipid rich breakfast",3.27 mmol/L
same,median of the ESS,[5],8.5
same,"Maximum latency all sarters, Fenofibrate-Placebo Estimate","[6]; ANCOVA on Log-transformed data, relative difference",7%
same,"Mean latency all sarter, Fenofibrate-Placebo Estimate","[6]; ANCOVA on non-transformed data, absolute difference",3.6 ms
same,"Maximum latency all sarters, End (V3) (median)",[6]; fenofibrate 145 mg group,750.0 ms
same,"Minimum latency all sarters, End (V3) (median)",[6]; fenofibrate 145 mg group,295.0 ms
same,"Percent false responses all sarters, End (V3) (median)",[6]; fenofibrate 145 mg group,1.1
same,"Percent omissions all sarters, End (V3) (median)",[6]; fenofibrate 145 mg group,0.0
same,"Standard Deviation latency all sarters, End (V3) (median)",[6]; fenofibrate 145 mg group,98.0 ms
same,"Mean latency all sarter, End (V3) (median)","[6]; fenofibrate 145 mg group, mean of the 5 tests",409.7 ms
same,"Number of desaturations, Fenofibrate-Placebo at end of treatment, Estimate",[7]; [9],−23%
same,"Mean of SPO2 on recording, Fenofibrate-Placebo Estimate",[7]; [10],1.1%
same,"Minimum value of SpO2, Fenofibrate-Placebo Estimate",[7]; [10],0.4%
same,"Mean of SPO2 on recording, End (V3) (median)",[7]; [11],94.0%
same,"Minimum value of SpO2, End (V3) (median)",[7]; [11],82.0%
same,"Number of desaturations, End (V3) (median)",[7]; [11],130.0
same,"Percentage of time with SpO2 < 90%, End (V3) (median)",[7]; [11],3.5%
same,"Percentage time spent with SpO2 < 80%, End (V3) (median)",[7]; [11],0.0%
same,"Percentage time spent with SpO2 < 85%, End (V3) (median)",[7]; [11],0.0%
same,"SpO2 in wake state, End (V3) (median)",[7]; [11],95.0%
